Test results from ChEMBL document CHEMBL3228036, “A new chemical series active against African trypanosomes: benzyltriphenylphosphonium salts” (J Med Chem, 1979).
Active and inactive are the calls of the source. The rule behind the calls is not given here.

Key:
[1] = system: Trypanosoma brucei rhodesiense; assay: […] activity against Trypanosoma brucei rhodesiense Wellcome CT infected in ICR/HA mouse assessed as curated mouse at 26.5 mg/kg, sc treated within 2 hrs of parasite infection measured up to 30 days; format: functional
Mus musculus [2] = assay: Toxicity in Trypanosoma brucei rhodesiense Wellcome CT infected ICR/HA mouse assessed as mortality at 424 mg/kg, sc treated within 2 hrs of parasite infection measured up to 30 days; format: organism-based; parameters: dose 424 mg/kg, route subcutaneous; conditions: in vivo
[3] = system: Trypanosoma brucei rhodesiense; assay: […] activity against Trypanosoma brucei rhodesiense Wellcome CT infected in ICR/HA mouse assessed as curated mouse at 13.3 mg/kg, sc treated within 2 hrs of parasite infection measured up to 30 days; format: functional, organism-based; parameters: dose 13.3 mg/kg
Mus musculus [4] = assay: Toxicity in Trypanosoma brucei rhodesiense Wellcome CT infected ICR/HA mouse assessed as mortality at 424 mg/kg, po treated within 2 hrs of parasite infection measured up to 30 days; format: organism-based; parameters: dose 424 mg/kg, route oral; conditions: in vivo
Mus musculus [5] = assay: Toxicity in Trypanosoma brucei rhodesiense Wellcome CT infected ICR/HA mouse assessed as mortality at 212 mg/kg, sc treated within 2 hrs of parasite infection measured up to 30 days; format: organism-based; parameters: dose 212 mg/kg, route subcutaneous; conditions: in vivo
[6] = system: Trypanosoma brucei rhodesiense; assay: […] activity against Trypanosoma brucei rhodesiense Wellcome CT infected in ICR/HA mouse assessed as curated mouse at 26.5 mg/kg, po treated within 2 hrs of parasite infection measured up to 30 days; format: functional, organism-based; parameters: dose 26.5 mg/kg
[7] = system: Trypanosoma brucei rhodesiense; assay: […] activity against Trypanosoma brucei rhodesiense Wellcome CT infected in ICR/HA mouse assessed as curated mouse at 13.3 mg/kg, po treated within 2 hrs of parasite infection measured up to 30 days; format: functional, organism-based; parameters: dose 13.3 mg/kg
[8] = system: Trypanosoma brucei rhodesiense; assay: […] activity against Trypanosoma brucei rhodesiense Wellcome CT infected in ICR/HA mouse assessed as curated mouse at 424 mg/kg, po treated within 2 hrs of parasite infection measured up to 30 days; format: functional, organism-based; parameters: dose 424 mg/kg
[9] = system: Trypanosoma brucei rhodesiense; assay: […] activity against Trypanosoma brucei rhodesiense Wellcome CT infected in ICR/HA mouse assessed as curated mouse at 53 mg/kg, po treated within 2 hrs of parasite infection measured up to 30 days; format: functional, organism-based; parameters: dose 53 mg/kg
[10] = system: Trypanosoma brucei rhodesiense; assay: […] activity against Trypanosoma brucei rhodesiense Wellcome CT infected in ICR/HA mouse assessed as curated mouse at 106 mg/kg, po treated within 2 hrs of parasite infection measured up to 30 days; format: functional, organism-based; parameters: dose 106 mg/kg
[11] = system: Trypanosoma brucei rhodesiense; assay: […] activity against Trypanosoma brucei rhodesiense Wellcome CT infected in ICR/HA mouse assessed as curated mouse at 212 mg/kg, sc treated within 2 hrs of parasite infection measured up to 30 days; format: functional, organism-based; parameters: dose 212 mg/kg
Mus musculus [12] = assay: Toxicity in Trypanosoma brucei rhodesiense Wellcome CT infected ICR/HA mouse assessed as mortality at 212 mg/kg, po treated within 2 hrs of parasite infection measured up to 30 days; format: organism-based; parameters: dose 212 mg/kg, route oral; conditions: in vivo
[13] = system: Trypanosoma brucei rhodesiense; assay: […] activity against Trypanosoma brucei rhodesiense Wellcome CT infected in ICR/HA mouse assessed as curated mouse at 6.5 mg/kg, sc treated within 2 hrs of parasite infection measured up to 30 days; format: functional, organism-based; parameters: dose 6.5 mg/kg
[14] = system: Trypanosoma brucei rhodesiense; assay: […] activity against Trypanosoma brucei rhodesiense Wellcome CT infected in ICR/HA mouse assessed as curated mouse at 424 mg/kg, sc treated within 2 hrs of parasite infection measured up to 30 days; format: functional, organism-based; parameters: dose 424 mg/kg
[15] = system: Trypanosoma brucei rhodesiense; assay: […] activity against Trypanosoma brucei rhodesiense Wellcome CT infected in ICR/HA mouse assessed as curated mouse at 212 mg/kg, po treated within 2 hrs of parasite infection measured up to 30 days; format: functional, organism-based; parameters: dose 212 mg/kg
[16] = system: Trypanosoma brucei rhodesiense; assay: […] activity against Trypanosoma brucei rhodesiense Wellcome CT infected in ICR/HA mouse assessed as curated mouse at 106 mg/kg, sc treated within 2 hrs of parasite infection measured up to 30 days; format: functional, organism-based; parameters: dose 106 mg/kg
[17] = system: Trypanosoma brucei rhodesiense; assay: […] activity against Trypanosoma brucei rhodesiense Wellcome CT infected in ICR/HA mouse assessed as curated mouse at 53 mg/kg, sc treated within 2 hrs of parasite infection measured up to 30 days; format: functional, organism-based; parameters: dose 53 mg/kg
[18] = system: Trypanosoma brucei rhodesiense; assay: […] activity against Trypanosoma brucei rhodesiense Wellcome CT infected in ICR/HA mouse assessed as curated mouse at 6.5 mg/kg, po treated within 2 hrs of parasite infection measured up to 30 days; format: functional, organism-based; parameters: dose 6.5 mg/kg

Structure (SMILES) | Activity ([1]; route subcutaneous) [%] | Activity (Mus musculus [2]) | Activity [3] | Activity [1] | Activity (Mus musculus [4]) | Activity (Mus musculus [5]) | Activity [6] | Activity [7] | Activity [8] | Activity [9] | Activity [10] | Activity [11] | Activity (Mus musculus [12]) | Activity [13] | Activity [14] | Activity [15] | Activity [16] | Activity [17] | Activity [18]
Cc1ccc(C[P+](c2ccccc2)(c2ccccc2)c2ccccc2)cc1.[Cl-] | 20 | Toxic |  |  |  |  |  |  |  |  |  |  |  |  |  |  |  |  | 
COC(=O)c1ccccc1C[P+](c1ccccc1)(c1ccccc1)c1ccccc1 |  |  | inactive | inactive |  |  |  |  |  |  |  |  |  |  |  |  |  |  | 
Cc1ccccc1C[P+](c1ccccc1)(c1ccccc1)c1ccccc1.[Br-] |  | Toxic |  |  | Toxic | Toxic |  |  |  |  |  |  |  |  |  |  |  |  | 
Cc1ccccc1C[P+](c1ccccc1)(c1ccccc1)c1ccccc1.[Cl-] | 40 | Toxic |  |  |  | Toxic |  |  |  |  |  |  |  |  |  |  |  |  | 
Cc1ccc([P+](Cc2ccccc2)(c2ccccc2)c2ccccc2)cc1.[Cl-] |  | Toxic | inactive | inactive | Toxic | Toxic | inactive | inactive | inactive | inactive | inactive | inactive | Toxic | inactive | inactive | inactive |  |  | 
Cc1ccc(C[P+](c2ccccc2)(c2ccccc2)c2ccccc2)cc1 |  |  | inactive | inactive |  |  | inactive | inactive | inactive | inactive | inactive | inactive |  | inactive | inactive | inactive | inactive | inactive | 
[Br-].c1ccc(C[P+](c2ccccc2)(c2ccccc2)c2ccccc2)cc1 |  | Toxic | inactive | inactive |  |  | inactive | inactive |  | inactive |  |  | Toxic | inactive | inactive | inactive | inactive | inactive | 
N=C(N)c1ccc(/C=C/c2ccc(C(=N)N)cc2)cc1 [STILBAMIDINE] | 98 |  | Active |  |  |  |  |  | Active | Active | Active | Active |  |  | Active | Active | Active | Active | inactive
[Br-].c1ccc([P+](Cc2cccc3cccnc23)(c2ccccc2)c2ccccc2)cc1 |  | Toxic | inactive | inactive |  |  |  |  |  |  |  |  |  |  | inactive |  |  | inactive | 
Cc1ccc(C[P+](c2ccccc2)(c2ccccc2)c2ccccc2)cc1.[Br-] |  | Toxic |  |  | Toxic | Toxic |  |  |  |  |  |  | Toxic |  |  |  |  |  | 
N=C(N)c1ccc(/C=C/c2ccc(C(=N)N)cc2O)cc1 [HYDROXYSTILBAMIDINE] | 71 |  |  |  |  |  |  |  |  |  |  |  |  |  |  |  |  |  | 
Cc1ccccc1C[P+](c1ccccc1)(c1ccccc1)c1ccccc1 |  |  | inactive | inactive |  |  | inactive | inactive | inactive | inactive | inactive | inactive |  |  | inactive | inactive | inactive | inactive | 
CC(C)(C)c1cc(C[P+](c2ccccc2)(c2ccccc2)c2ccccc2)cc(C(C)(C)C)c1O.[Br-] |  |  | inactive | inactive |  |  | inactive | inactive | inactive | inactive | inactive | inactive | Toxic |  | inactive | inactive | inactive | inactive | 
Cc1ccccc1[P+](Cc1ccccc1)(c1ccccc1)c1ccccc1.[Cl-] |  | Toxic | inactive |  | Toxic |  | inactive | inactive | inactive | inactive |  |  |  | inactive | inactive |  | inactive | inactive | 
Cc1cccc([P+](Cc2ccccc2)(c2cccc(C)c2)c2cccc(C)c2)c1.[Cl-] |  | Toxic | inactive |  |  |  | inactive | inactive |  | inactive | inactive |  |  |  | inactive |  | inactive |  | 
Clc1ccc(OC[P+](c2ccccc2)(c2ccccc2)c2ccccc2)cc1.[Cl-] |  | Toxic | inactive | inactive |  |  |  |  | inactive |  |  |  |  |  | inactive |  |  |  | 
[I-].c1ccc(CC(c2ccccc2)[P+](c2ccccc2)(c2ccccc2)c2ccccc2)cc1 (configuration not stated) |  | Toxic | inactive | inactive |  |  |  |  | inactive |  |  |  |  |  | inactive |  | inactive |  | 
CCOc1ccc(C[P+](c2ccccc2)(c2ccccc2)c2ccccc2)cc1.[Cl-] |  | Toxic | inactive | inactive |  | Toxic |  |  |  |  |  | inactive |  |  | inactive |  |  |  | 
CCCCCCCCCCCC[P+](c1ccccc1)(c1ccccc1)c1ccccc1 |  |  |  | inactive |  |  |  |  | inactive |  |  | inactive |  |  | inactive |  | inactive |  | 
Clc1ccccc1C[P+](c1ccccc1)(c1ccccc1)c1ccccc1.[Cl-] |  | Toxic | inactive |  | Toxic | Toxic | inactive | inactive | inactive | inactive | inactive | inactive | Toxic |  | inactive | inactive |  |  | 
Cc1ccccc1[P+](Cc1ccccc1)(c1ccccc1)c1ccccc1C.[Cl-] |  | Toxic | inactive |  |  | Toxic |  | inactive | inactive | inactive |  | inactive | Toxic |  | inactive | inactive |  |  | 
C=CC[P+](c1ccccc1)(c1ccccc1)c1ccccc1.[Br-] |  | Toxic | inactive | inactive |  |  |  |  | inactive |  |  |  |  |  | inactive |  |  |  | 
[Br-].c1ccc([P+](c2ccccc2)(c2ccccc2)c2ccccc2)cc1 [TETRAPHENYLPHOSPHONIUM BROMIDE] |  | Toxic |  | inactive |  | Toxic |  |  | inactive |  |  | inactive |  |  | inactive |  | inactive |  | 
Cc1ccccc1[P+](Cc1ccccc1)(c1ccccc1C)c1ccccc1C.[Cl-] |  | Toxic | inactive | inactive | Toxic |  | inactive | inactive | inactive |  | inactive |  |  |  | inactive |  | inactive |  | 
